US20230263905A1, “SONOSENSITIVE LIPOSOME AND METHOD FOR PREPARING SAME” (IMGT CO, LTD., priority 2020, published 2023)

System: MDA-MB-231 cell line
Test: Cancer cell death effect, MTT assay
Assay type: cell-based
Settings: not irradiated with ultrasound; 2-10 μg/mL doxorubicin, 3 hours treatment, 72 hours culture; FIG. 9
Experimental: To compare and analyze a cell death effect of the sonosensitive liposome according to the presence/absence of ultrasound irradiation, cancer cell death effects were compared and analyzed according to the presence/absence of ultrasound irradiation using the sonosensitive liposomes of Example 1. An MDA-MB-231 cell line which is a triple-negative breast cancer cell line was used as cancer cells. The MDA-MB-231 cell line was seeded in each well of a 96-well plate at a concentration of 10,000 cells/mL, and then cultured overnight. The cell culture was cultured in a culture broth containing 10% fetal bovine serum (FBS) and 1% antibiotic in Dulbecco's Modified Eagle Medium (DMEM). The culture broth was removed from the wells in which the cells were cultured overnight, and replaced with FBS-free DMEM, and then cultured for an hour. Then, the sonosensitive liposome were added thereto, and cultured for 3 hours. To compare and analyze the cancer cell death according to the ultrasound irradiation, each of the designated wells was treated with a sonosensitive liposome (Sono liposome (US+)) irradiated with ultrasound and a sonosensitive liposome (Sono liposome (US−)) not irradiated with ultrasound. […] The cancer cell death effects were compared and analyzed by adding 200 μL of DMSO to formed formazan in each well and measuring the absorbance at a wavelength of 540 nm using an ELISA reader.

COc1cccc2c1C(=O)c1c(O)c3c(c(O)c1C2=O)C[C@@](O)(C(=O)CO)C[C@@H]3O[C@H]1C[C@H](N)[C@H](O)[C@H](C)O1 [doxorubicin]
cell death effect on cancer cells: had a cancer cell death effect
